Laboratory results as given in patent US8530650B2, “2, 5-diamino-substituted pyrido [4, 3-D] pyrimidines as autotaxin inhibitors against cancer” (MERCK PATENT GmbH, priority 2008, dated 2013).

Target: T1, recombinant autotaxin (Homo sapiens, UniProt Q13822)
T1 construct: made in house; host or cells: Hi5 insect cells (baculovirus)
Assay: Autotaxin assay (Amplex Red, LPC substrate)
Assay type: biochemical
Details: 75 μM LPC, Amplex Red fluorescence, ten 1:3 dilutions starting at 30 μM
In short: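 Baculovirus (Hi5)-expressed autotaxin (16 ng) was preincubated with compound 30 min at 22° C., then reacted with 75 μM final egg LPC for 90 min at 37° C.; choline released was coupled via choline oxidase/peroxidase to Amplex Red, fluorescence read kinetically (ex 485/em 612 nm). IC50 from 10-point 1:3 dilutions from 30 μM, duplicates, normalized to 500 μM C14 LPA as 0%.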

Row | Compound | IC50
1 | CCOC(=O)CCNC(=O)C1CCN(c2nccc3nc(NCc4ccccc4Cl)ncc23)CC1 [Compound 101, 3-({1-[2-(2-Chloro-benzylamino)-pyrido[4,3-d]pyrimidin-5-yl]-piperidine-4-carbonyl}-amino)-propionic acid ethyl ester] | < 30 µM
2 | CC(=O)CCC(=O)N1CCN(c2nccc3nc(NCc4ccccc4Cl)ncc23)CC1 [Compound 123, 1-{4-[2-(2-Chloro-benzylamino)-pyrido[4,3-d]pyrimidin-5-yl]-piperazin-1-yl}-pentane-1,4-dione] | < 30 µM
3 | O=C(O)CN1CCN(c2nccc3nc(NCc4ccccc4Cl)ncc23)CC1 [Compound 145, {4-[2-(2-Chloro-benzylamino)-pyrido[4,3-d]pyrimidin-5-yl]-piperazin-1-yl}-acetic acid] | < 10 µM
4 | CCOCCCNC(=O)C1CCN(c2nccc3nc(NCc4ccccc4OC)ncc23)CC1 [Compound 102, 1-[2-(2-Methoxy-benzylamino)-pyrido[4,3-d]pyrimidin-5-yl]-piperidine-4-carboxylic acid (3-ethoxy-propyl)-amide] | < 30 µM
5 | CCOCCCNC(=O)C1CCN(c2nccc3nc(NCc4ccccc4Cl)ncc23)CC1 [Compound 98, 1-[2-(2-Chloro-benzylamino)-pyrido[4,3-d]pyrimidin-5-yl]-piperidine-4-carboxylic acid (3-ethoxy-propyl)-amide] | < 5 µM
6 | COCCOCC(=O)N1CCN(c2nccc3nc(NCc4ccccc4Cl)ncc23)CC1 [Compound 136, 1-{4-[2-(2-Chloro-benzylamino)-pyrido[4,3-d]pyrimidin-5-yl]-piperazin-1-yl}-2-(2-methoxy-ethoxy)-ethanone] | < 30 µM
7 | CCN1CCN(C(=O)C2CCCN(c3nccc4nc(NCc5ccccc5Cl)ncc34)C2)CC1 (stereo not shown) [Compound 89, {1-[2-(2-Chloro-benzylamino)-pyrido[4,3-d]pyrimidin-5-yl]-piperidin-3-yl}-(4-ethyl-piperazin-1-yl)-methanone] | < 5 µM
8 | Cn1cc(CCC(=O)N2CCN(c3nccc4nc(NCc5ccccc5Cl)ncc34)CC2)cn1 [Compound 120, 1-{4-[2-(2-Chloro-benzylamino)-pyrido[4,3-d]pyrimidin-5-yl]-piperazin-1-yl}-3-(1-methyl-1H-pyrazol-4-yl)-propan-1-one] | < 30 µM
9 | O=C(C1CCN(c2nccc3nc(NCc4ccccc4Cl)ncc23)CC1)N1CCC[C@H]1CN1CCCC1 [Compound 142, {1-[2-(2-Chloro-benzylamino)-pyrido[4,3-d]pyrimidin-5-yl]-piperidin-4-yl}-((S)-2-pyrrolidin-1-ylmethyl-pyrrolidin-1-yl)-methanone] | < 30 µM
10 | O=C(Cc1ccncc1)N1CCN(c2nccc3nc(NCc4ccccc4Cl)ncc23)CC1 [Compound 138, 1-{4-[2-(2-Chloro-benzylamino)-pyrido[4,3-d]pyrimidin-5-yl]-piperazin-1-yl}-2-pyridin-4-yl-ethanone] | < 30 µM
11 | CCN(CC)C(=O)C1CCN(c2nccc3nc(NCc4ccccc4OC)ncc23)CC1 [Compound 103, 1-[2-(2-Methoxy-benzylamino)-pyrido[4,3-d]pyrimidin-5-yl]-piperidine-4-carboxylic acid diethylamide] | < 10 µM

The next lines start with the values.

Row | IC50 | Compound
12 | < 30 µM | COc1ccc(Nc2nccc3nc(NCc4ccccc4)ncc23)cc1OC [Compound 6, N2-Benzyl-N5-(3,4-dimethoxy-phenyl)-pyrido[4,3-d]pyrimidine-2,5-diamine]
13 | < 30 µM | c1ccc(CNc2ncc3c(Nc4ccc5c(c4)OCO5)nccc3n2)cc1 [Compound 5, N5-Benzo[1,3]dioxol-5-yl-N2-benzyl-pyrido[4,3-d]pyrimidine-2,5-diamine]
14 | < 30 µM | Cc1ccc(CNc2ncc3c(Nc4ccc(F)cc4C)nccc3n2)cc1 [Compound 19, N5-(4-Fluoro-2-methyl-phenyl)-N2-(4-methyl-benzyl)-pyrido[4,3-d]pyrimidine-2,5-diamine]
15 | < 30 µM | Cc1ccccc1Nc1nccc2nc(NCc3ccc(Cl)cc3)ncc12 [Compound 43, N2-(4-Chloro-benzyl)-N5-o-tolyl-pyrido[4,3-d]pyrimidine-2,5-diamine]
16 | < 30 µM | COC(=O)c1ccc(Nc2nccc3nc(NCc4ccc(Cl)cc4)ncc23)cc1 [Compound 50, 4-[2-(4-Chloro-benzylamino)-pyrido[4,3-d]pyrimidin-5-ylamino]-benzoic acid methyl ester]
17 | < 30 µM | Fc1ccc(CNc2ncc3c(Nc4ccc(F)cc4)nccc3n2)cc1 [Compound 21, N2-(4-Fluoro-benzyl)-N5-(4-fluoro-phenyl)-pyrido[4,3-d]pyrimidine-2,5-diamine]
18 | < 30 µM | Clc1ccccc1CNc1ncc2c(NCCN3CCCCC3)nccc2n1 [Compound 18, N2-(2-Chloro-benzyl)-N5-(2-piperidin-1-yl-ethyl)-pyrido[4,3-d]pyrimidine-2,5-diamine]
19 | < 5 µM | Clc1ccccc1CNc1ncc2c(N3CCCC3)nccc2n1 [Compound 8, (2-Chloro-benzyl)-(5-pyrrolidin-1-yl-pyrido[4,3-d]pyrimidin-2-yl)-amine]
20 | < 30 µM | Clc1ccccc1CNc1ncc2c(NCc3cccnc3)nccc2n1 [Compound 11, N2-(2-Chloro-benzyl)-N5-pyridin-3-ylmethyl-pyrido[4,3-d]pyrimidine-2,5-diamine]
21 | < 30 µM | Fc1ccc(Nc2nccc3nc(NCc4ccc(Cl)cc4)ncc23)cc1F [Compound 48, N2-(4-Chloro-benzyl)-N5-(3,4-difluoro-phenyl)-pyrido[4,3-d]pyrimidine-2,5-diamine]
22 | < 30 µM | Fc1ccc(CNc2ncc3c(NCc4ccc5nonc5c4)nccc3n2)cc1 [Compound 29, N5-Benzo[1,2,5]oxadiazol-5-ylmethyl-N2-(4-fluoro-benzyl)-pyrido[4,3-d]pyrimidine-2,5-diamine]
